Results taken from US9301945B2, “Methods for treating inflammatory conditions and states, and cancers by antagonizing NF-κB activation” (Emory University, priority 2011, dated 2016).
“Also recorded” adds a separate entry of the source.

Legend:
[1] = system: MC3T3 osteoblast precursors; assay: Osteoblast differentiation / mineralization assay with Alizarin Red-S staining; type: cell-based, mouse; details: for osteoblast mineralization (calcium deposition, Alizarin Red-S): 200 μM, 17 days of culture, mineralizing medium, no TNFα
Protocol: (§1) The mouse preosteoblastic cell line MC3T3-E1, clone 14 (MC3T3) and the mouse monocytic cell line RAW264.7 were purchased from the Amerimay Type Culture Collection (Manassas, Va.) and cultured as described in, for example, Li et al. (2007) J Bone Miner Res 22(5): 646-655; and Yamaguchi et al. (2009) Int J Mol Med 24(5): 671-675.
For mineralization assays MC3T3 cells were plated in 12-well dishes at a density of 1.0×10^5 cells per well in mineralization medium (α-MEM supplemented with 10% FBS, L-ascorbic acid (100 μg/ml) and 4 mM β-glycerophosphate) as previously described in, for example, Li et al. (2007) J Bone Miner Res 22(5): 646-655; and Sugimoto et al. (2000) Int J Mol Med 5(5): 515-520. Strontium ranelate, sodium ranelate or strontium chloride were added at the indicated doses and cells replenished with fresh medium every 3 days. At 17-18 days of culture, cells were rinsed with PBS and calcium deposition was visualized by fixing the cells in 75% ethanol for 30 minutes at 4° C. followed by staining with Alizarin Red-S (40 mM, pH 6.2) for 30 minutes at room temperature. Excess stain was removed by copious washing with distilled water. Plates were imaged using a flatbed smayner (Epson Perfection 1660 Photo).
The mechanism by which strontium ranelate promotes osteoblast differentiation was investigated using an in vitro model. The in-vitro model used to investigate utilizes the MC3T3 mouse pre-osteoblast cell line that differentiates spontaneously into active osteoblasts within 21 days of culture in medium containing ascorbic acid and β-glycerophosphate (mineralizing medium).

[2] = system: TNFα-induced NF-κB activation in MC3T3 osteoblast precursors; assay: NF-κB luciferase reporter assay in MC3T3 cells stimulated with TNFα; type: cell-based, mouse; details: 24 h
Text: (§2) The NF-κB responsive reporter pNF-κB-Luc (BD Biosciences) and the Smad responsive reporter pGL3-Smad were used as previously described by in, for example, Li et al. (2007) J Bone Miner Res 22(5): 646-65. Briefly, reporter plasmids were transfected into MC3T3 or RAW264.7 cells (1×10^5 cells/well) using Lipofectamine 2000 reagent (Invitrogen) in α-MEM without FBS and antibiotics. Five hours later the medium was changed to α-MEM containing 10% FBS plus antibiotics and MC3T3 cells treated with TNFα (1 or 10 ng/ml as indicated) or RAW264.7 cells treated with RANKL (30 ng/ml) to stimulate NF-κB activity. In some experiments, Smad activity was induced in MC3T3 cells using TGFβ (1 ng/ml). Strontium ranelate, sodium ranelate or strontium chloride were added at the indicated doses. Cells were extracted with passive lysis buffer (Promega Corporation, Madison Wis.) 24 hours later, and luciferase activity was measured using the Luciferase Assay System of Promega, on a microplate luminometer (Turner Designs, Sunnyvale, Calif., USA).
A major mechanism by which TNFα mediates its suppressive action on osteoblasts is through NF-κB activation. See Li et al. (2007) J Bone Miner Res 22(5): 646-655; and Nanes (2003) Gene 321: 1-15.

[3] = system: TGFβ-induced Smad activation in MC3T3 cells; assay: Smad luciferase reporter assay in MC3T3 cells (TGFβ with or without TNFα); type: cell-based, mouse; details: 24 h; for direct effect on basal Smad activity: 500 μM; for effect on TNFα suppression of TGFβ-induced Smad activity: TGFβ 1 ng/ml, TNFα 1 ng/ml, concentrations of 100 μM and above
Text: as §2
TGFβ is a potent early osteoblast precursor commitment and recruitment factor. See, e.g., See Janssens et al. (2005) Endocr Rev 26(6): 743-774; and Tang et al. (2009) Nat Med 15(7): 757-765. It has been reported that TNFα antagonizes TGFβ-induced Smad signaling in osteoblast precursors (see, e.g., Li et al. (2007) J Bone Miner Res 22(5): 646-655) and consequently investigated whether strontium ranelate may alleviate TNFα-induced suppression of TGFβ-induced Smad signaling in preosteoblasts. MC3T3 cells were transiently transfected with a Smad responsive luciferase reporter and Smad-induced transcription quantitated following stimulation by TGFβ.

[4] = system: RAW264.7 osteoclast precursors; assay: Osteoclastogenesis assay with TRAP staining; type: cell-based, mouse; details: RANKL 30 ng/ml, 7 days
Protocol: as §1
RAW264.7 cells were cultured in 96-well plates in α-MEM supplemented with 10% FBS and 100 IU/ml penicillin, and 100 μg/ml streptomycin at a density of 1×10^4 cells/well. Cells were cultured for 6 days with RANKL ([…]) pre-incubated for 10 minutes with crosslinking anti-poly-histidine antibody (2.5 μg/ml), to induce osteoclast formation. Strontium ranelate, sodium ranelate or strontium chloride were added at the indicated doses. After 6 days of culture, the cells were fixed and stained for TRAP, a specific maker of the osteoclast phenotype, using a leukocyte acid phosphatase kit. TRAP+ cells with three or more nuclei were defined as osteoclasts and were quantitated under light microscopy, and normalized for cell size based on number of nuclei. Five wells per group were averaged. Representative wells were photographed under bright field microscopy using a Nikon Eclipse TE2000-S inverted microscope equipped with a digital camera (QImaging Corp., Burnaby, BC, Mayada).
To establish an in vitro osteoclastogenesis model suitable for investigation of strontium ranelate activity, the monocytic cell line RAW 264.7 was employed and differentiated into osteoclasts by addition of the key osteoclastogenic cytokine RANKL was induced. The effect of strontium ranelate on osteoclast differentiation was tested over a dose range from 1 μM to 200 μM and cultures were stained with TRAP 7 days later and osteoclast formation quantitated.

[5] = system: RANKL-induced NF-κB activation in RAW264.7 osteoclast precursors; assay: NF-κB luciferase reporter assay in RAW264.7 cells stimulated with RANKL; type: cell-based, mouse; details: RANKL 30 ng/ml, dose range 1 to 1000 μM, 24 h
Text: as §2
See Caudrillier et al. (2010) Mol Pharmacol 78(4):569-576.

[6] = system: NF-κB nuclear translocation; details: reported by Caudrillier et al. (2010); cited from earlier work
postmenopausal women = details: clinical trials; cited from earlier work
[7] = in vitro osteoblast differentiation and mineralization assays

SMILES | osteoblast mineralization (calcium deposition, Alizarin Red-S) [1] | TNFα-induced NF-κB activity (luciferase) ([2]; TNFα 1 ng/ml, 200 μM) | direct effect on basal Smad activity [3] | effect on TNFα suppression of TGFβ-induced Smad activity [3] | RANKL-induced osteoclast formation (TRAP+ multinucleated cells) ([4]; 10 or 100 μM) | RANKL-induced NF-κB activity (luciferase) [5] | effect on TNFα suppression of basal mineralization ([1]; TNFα 5 ng/ml, 10 μM) | mineralization relative to basal levels in presence of TNFα ([1]; TNFα 5 ng/ml, 100 and 200 μM) | lowest dose achieving significant biological activities [1, 7] [μM] | saturating dose [1, 7] [µM] | TNFα-induced NF-κB activity (luciferase) ([2]; high TNFα 10 ng/ml, dose range 1 to 1000 μM) | TNFα-induced NF-κB activity (luciferase) ([2]; low TNFα 1 ng/ml, dose range 1 to 1000 μM) | RANKL-induced osteoclast formation (TRAP+ multinucleated cells) ([4]; 1 μM) | RANKL-induced NF-κB activity (luciferase) ([5]; listed as Strontium ranelate) | RANKL-induced NF-κB nuclear translocation [6] | bone loss (postmenopausal women) | fracture risk (postmenopausal women)
N#Cc1c(N(CC(=O)[O-])CC(=O)[O-])sc(C(=O)[O-])c1CC(=O)[O-].[Na+].[Na+].[Na+].[Na+] [sodium ranelate] | no stimulatory effects on osteoblast mineralization | completely ineffective | no direct effect on basal Smad activity | significantly relieved the suppressive effect of TNFα on TGFβ-induced Smad activity | neither strontium chloride nor sodium ranelate had any effect on osteoclast formation | – | – | – | – | – | – | – | – | – | – | – | –
[Cl-].[Cl-].[Sr+2] [strontium chloride] | no stimulatory effects on osteoblast mineralization | completely ineffective | – | – | neither strontium chloride nor sodium ranelate had any effect on osteoclast formation | no significant effect; also recorded: failed to suppress NF-κB activity | – | – | – | – | – | – | – | – | – | – | –
N#Cc1c(N(CC(=O)[O-])CC(=O)[O-])sc(C(=O)[O-])c1CC(=O)[O-].[Sr+2].[Sr+2] [strontium ranelate, distrontium salt of 2-[N,N-di(carboxymethyl)amino]-3-cyano-4-carboxymethylthiophene-5-carboxylic acid] | promote a robust osteoblast mineralization; also recorded: robust enhancement in mineralization | significantly suppressed TNFα-induced NF-κB activity | no direct effects on Smad activity | significantly alleviates the suppressive effect of TNFα on TGFβ-induced Smad activation | potently suppresses osteoclast formation at both doses | potently antagonize RANKL-induced NF-κB activation | completely reversed the suppressive effect of TNFα on basal mineralization | potently augmented mineralization over basal levels | 1 | 100 | dose dependently suppressed TNFα-induced NF-κB activity | dose dependently suppressed TNFα-induced NF-κB activity | significantly suppressed | dose-dependently and significantly blunted RANKL-induced NF-κB activity | antagonize RANKL-induced NF-κB nuclear translocation | protect against bone loss | reduce fracture risk
